# Values of other authors as cited in patent publication US20190290552A1, “ETHANOLIC COMPOSITIONS COMPRISING PERFUME” (Conopco, Inc., d/b/a UNILEVER, priority 2016, published 2019).
# Conditions: taken from the Good Scents website
row,SMILES,LogKow
1,"C=CC(C)(O)CCC=C(C)CC (centres unmarked) [3,7-Dimethyl-1,6-nonadien-3-ol]",3.7
2,CC(C=O)Cc1ccc(C(C)(C)C)cc1 (centres unmarked) [Lilial],3.6
3,C=C(C)[C@H]1CC=C(C)CC1 [Limonene],3.4
4,C=CC(C)(O)CCC=C(C)C (centres unmarked) [Linalool],2.7
5,C=CC(C)(CCC=C(C)C)OC(=O)CCC (centres unmarked) [Linalyl Butyrate],4.1
6,CCCCCC1C(=O)CCC1CC(=O)OC (centres unmarked) [Methyl dihydrojasmonate],2.7
7,O=C1CCCCCCCCCCCCO1 [Oxacyclotetradecan-2-one],4.7
8,CC1=CC[C@]2(C)CCCC(C)(C)[C@@]23C[C@@H]13 [Thujopsene],4.8
